Assay results as given in patent publication US20240254082A1, “Substituted Isoindoline-1, 3-diketone PDE4 Inhibitor and Pharmaceutical Application Thereof” (SUZHOU INTRAGRAND PHARMA CO., LTD, priority 2021, published 2024).
Like-named read-outs stand apart in the source and are kept apart here.

What was measured:
PDE1C = PDE1C (Homo sapiens, UniProt Q14123); assay: Selective inhibitory activity assay, PDE1C; type: biochemical; details: read-out: Inhibition rate (%) of PDE1C
Description: (§1) 7. Selective inhibitory activity assay for PDE1, 2, 3, 5, 7, 10 and 11 enzymes
(§2) The selective specificity of compounds for PDE4 was assessed by assaying single concentrations of the compounds. For example, PDE1a enzyme, PDElc enzyme, PDE2a enzyme, PDE3a enzyme, PDE3b enzyme, PDE5a1 enzyme, PDE7a enzyme, PDE7b enzyme, PDE10a1 enzyme and PDE11a4 enzyme were tested. The selective inhibitory effects of different compounds on the enzymatic activities of PDEIC, PDE2A, PDE3B, PDE5A1, PDE7A, and PDE10A1 at concentrations of 10 μM and 1 μM, respectively, are shown in the table below: […]

PDE2A = PDE2A (Homo sapiens, UniProt O00408); assay: Selective inhibitory activity assay, PDE2A; type: biochemical; details: read-out: Inhibition rate (%) of PDE2A
Description: as §1, §2

PDE3B = PDE3B (Homo sapiens, UniProt Q13370); assay: Selective inhibitory activity assay, PDE3B; type: biochemical; details: read-out: Inhibition rate (%) of PDE3B
Description: as §1, §2

PDE5A1 = PDE5A1 (Homo sapiens, UniProt O76074); assay: Selective inhibitory activity assay, PDE5A1; type: biochemical; details: 1 μM; read-out: Inhibition rate (%) of PDE5A1
Description: as §1, §2

PDE7A = PDE7A (Homo sapiens, UniProt Q13946); assay: Selective inhibitory activity assay, PDE7A; type: biochemical; details: read-out: Inhibition rate (%) of PDE7A
Description: as §1, §2

PDE10A1 = PDE10A1 (Homo sapiens, UniProt Q9Y233); assay: Selective inhibitory activity assay, PDE10A1; type: biochemical; details: read-out: Inhibition rate (%) of PDE10A1
Description: as §1, §2

TNF-α = assay: Inhibition of TNF-α induced in human peripheral blood mononuclear cells; type: cell-based; details: read-out: IC50 (nM), cytokine TNF-α
IL-2 = assay: Inhibition of IL-2 induced in human peripheral blood mononuclear cells; type: cell-based; details: human PBMC, stimulus SEB; read-out: IC50 (nM), cytokine IL-2
Description: 8. Inhibitory assay of inflammatory factors TNF-α, IL-2, INF-γ
Determination of TNF-α, IL-2 and INF-γ induced by LPS/SEB in human peripheral blood mononuclear cells:
1. The purchased PBMC frozen cells were thawed at 37° C., transferred to RMPI1640 medium, and incubated overnight at 37° C. in an incubator containing 5% of CO2.
2. The next day, the cells were planked at 2×10^5 cells/well, with 100 μL per well.
4. LPS stimulus was added to each well at a final concentration of 10 ng/ml.
5. Incubation was carried out overnight at […] in an incubator containing 5% of CO2.
6. On the third day, the cell culture supernatant was collected, and cytokine assay was performed using an MSD method.

INF-γ = assay: Inhibition of INF-γ induced in human peripheral blood mononuclear cells; type: cell-based
[1] = Homo sapiens, PBMC, read-out: IC50 (nM), cytokine INF-r, human PBMC, stimulus SEB

Sequence of PDE3B (Q13370 whole entry, species assumed): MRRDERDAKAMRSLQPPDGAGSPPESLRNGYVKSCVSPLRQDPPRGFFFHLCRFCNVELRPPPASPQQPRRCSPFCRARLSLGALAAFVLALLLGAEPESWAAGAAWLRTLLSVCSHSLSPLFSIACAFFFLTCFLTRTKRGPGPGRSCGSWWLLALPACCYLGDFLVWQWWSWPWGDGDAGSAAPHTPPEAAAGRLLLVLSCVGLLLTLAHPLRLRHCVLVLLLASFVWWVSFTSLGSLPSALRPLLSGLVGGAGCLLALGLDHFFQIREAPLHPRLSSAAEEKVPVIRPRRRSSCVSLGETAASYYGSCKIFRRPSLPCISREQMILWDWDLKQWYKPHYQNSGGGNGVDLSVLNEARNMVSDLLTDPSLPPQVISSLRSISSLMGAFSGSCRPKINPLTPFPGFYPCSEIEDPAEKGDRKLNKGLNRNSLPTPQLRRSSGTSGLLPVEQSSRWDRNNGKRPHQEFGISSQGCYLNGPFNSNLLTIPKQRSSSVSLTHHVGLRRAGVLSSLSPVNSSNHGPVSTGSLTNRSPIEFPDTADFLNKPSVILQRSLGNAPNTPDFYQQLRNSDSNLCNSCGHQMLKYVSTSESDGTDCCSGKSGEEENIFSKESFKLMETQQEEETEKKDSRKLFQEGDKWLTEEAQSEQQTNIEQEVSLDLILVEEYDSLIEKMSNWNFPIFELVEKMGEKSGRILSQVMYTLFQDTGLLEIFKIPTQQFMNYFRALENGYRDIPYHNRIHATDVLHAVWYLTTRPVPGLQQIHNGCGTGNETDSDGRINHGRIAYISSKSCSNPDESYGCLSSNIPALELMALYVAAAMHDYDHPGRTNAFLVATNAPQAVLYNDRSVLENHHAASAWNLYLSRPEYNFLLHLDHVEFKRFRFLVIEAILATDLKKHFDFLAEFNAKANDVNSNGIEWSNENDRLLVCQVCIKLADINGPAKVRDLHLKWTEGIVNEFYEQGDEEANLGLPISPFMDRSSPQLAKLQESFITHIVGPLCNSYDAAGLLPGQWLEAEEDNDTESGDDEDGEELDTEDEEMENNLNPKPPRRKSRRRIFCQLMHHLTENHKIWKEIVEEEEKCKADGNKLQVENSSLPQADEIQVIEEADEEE
Sequence of PDE1C (Q14123 whole entry, species assumed): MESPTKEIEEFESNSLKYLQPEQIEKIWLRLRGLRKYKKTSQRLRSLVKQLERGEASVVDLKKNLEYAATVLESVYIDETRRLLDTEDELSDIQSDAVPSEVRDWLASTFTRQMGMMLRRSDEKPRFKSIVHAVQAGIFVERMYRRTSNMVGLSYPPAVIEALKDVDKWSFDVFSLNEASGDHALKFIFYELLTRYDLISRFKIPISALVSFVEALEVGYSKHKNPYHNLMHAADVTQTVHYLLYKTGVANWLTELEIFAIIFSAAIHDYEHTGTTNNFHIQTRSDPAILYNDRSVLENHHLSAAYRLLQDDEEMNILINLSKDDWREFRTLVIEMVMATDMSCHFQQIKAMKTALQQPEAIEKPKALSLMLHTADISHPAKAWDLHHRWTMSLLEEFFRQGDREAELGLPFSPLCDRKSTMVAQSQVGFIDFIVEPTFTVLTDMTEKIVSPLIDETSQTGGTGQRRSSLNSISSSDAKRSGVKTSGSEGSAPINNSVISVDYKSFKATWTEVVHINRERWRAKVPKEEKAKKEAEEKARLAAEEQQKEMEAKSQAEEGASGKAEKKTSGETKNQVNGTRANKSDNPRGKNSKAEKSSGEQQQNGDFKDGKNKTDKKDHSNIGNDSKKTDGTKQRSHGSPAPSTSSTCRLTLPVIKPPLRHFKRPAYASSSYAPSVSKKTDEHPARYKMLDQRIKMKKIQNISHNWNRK
Sequence of PDE10A1 (Q9Y233 1-779 isoform Q9Y233-1, species assumed): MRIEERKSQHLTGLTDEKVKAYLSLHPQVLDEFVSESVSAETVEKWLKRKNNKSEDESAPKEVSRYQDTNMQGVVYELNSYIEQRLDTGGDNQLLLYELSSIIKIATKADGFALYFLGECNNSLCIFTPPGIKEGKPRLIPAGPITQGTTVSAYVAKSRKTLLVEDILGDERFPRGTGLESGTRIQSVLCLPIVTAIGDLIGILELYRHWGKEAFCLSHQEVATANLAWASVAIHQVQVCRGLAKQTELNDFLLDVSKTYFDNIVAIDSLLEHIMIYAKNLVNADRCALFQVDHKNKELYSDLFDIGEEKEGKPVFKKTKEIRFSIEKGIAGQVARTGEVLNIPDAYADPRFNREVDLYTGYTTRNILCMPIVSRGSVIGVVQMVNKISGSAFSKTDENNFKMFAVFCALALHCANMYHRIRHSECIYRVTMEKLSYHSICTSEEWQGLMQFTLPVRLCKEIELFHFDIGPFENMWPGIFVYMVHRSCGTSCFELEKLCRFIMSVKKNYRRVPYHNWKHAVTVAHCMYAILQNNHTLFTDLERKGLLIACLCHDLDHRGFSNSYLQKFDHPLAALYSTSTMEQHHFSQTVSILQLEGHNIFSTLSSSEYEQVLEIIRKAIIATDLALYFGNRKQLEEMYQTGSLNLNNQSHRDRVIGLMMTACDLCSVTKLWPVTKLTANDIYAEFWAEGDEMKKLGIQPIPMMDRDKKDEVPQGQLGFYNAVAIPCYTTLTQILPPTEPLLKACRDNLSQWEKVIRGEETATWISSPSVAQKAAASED
Sequence of PDE2A (O00408 whole entry, species assumed): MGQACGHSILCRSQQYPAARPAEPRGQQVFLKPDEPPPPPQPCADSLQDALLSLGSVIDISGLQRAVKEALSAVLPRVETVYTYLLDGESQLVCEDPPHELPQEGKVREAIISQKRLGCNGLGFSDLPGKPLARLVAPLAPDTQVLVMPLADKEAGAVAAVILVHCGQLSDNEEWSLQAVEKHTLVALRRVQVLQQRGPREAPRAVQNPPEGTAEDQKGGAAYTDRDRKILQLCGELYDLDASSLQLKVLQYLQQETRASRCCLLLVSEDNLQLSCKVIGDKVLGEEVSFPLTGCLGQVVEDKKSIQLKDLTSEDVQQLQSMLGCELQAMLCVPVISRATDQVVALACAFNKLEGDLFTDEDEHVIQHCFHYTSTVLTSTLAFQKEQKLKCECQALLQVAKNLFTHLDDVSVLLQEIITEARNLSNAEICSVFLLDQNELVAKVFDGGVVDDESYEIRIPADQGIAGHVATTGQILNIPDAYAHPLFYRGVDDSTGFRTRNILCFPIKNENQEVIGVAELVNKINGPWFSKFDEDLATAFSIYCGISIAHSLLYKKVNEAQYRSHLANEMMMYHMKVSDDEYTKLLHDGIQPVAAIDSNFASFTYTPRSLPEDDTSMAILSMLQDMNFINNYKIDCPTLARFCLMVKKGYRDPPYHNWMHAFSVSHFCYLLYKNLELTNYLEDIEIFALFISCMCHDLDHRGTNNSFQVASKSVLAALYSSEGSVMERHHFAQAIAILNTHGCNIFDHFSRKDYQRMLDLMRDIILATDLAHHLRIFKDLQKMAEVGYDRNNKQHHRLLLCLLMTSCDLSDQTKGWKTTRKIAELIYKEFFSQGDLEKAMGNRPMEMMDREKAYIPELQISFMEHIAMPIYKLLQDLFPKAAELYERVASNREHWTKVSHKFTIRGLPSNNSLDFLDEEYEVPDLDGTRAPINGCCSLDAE
Sequence of PDE7A (Q13946 whole entry, species assumed): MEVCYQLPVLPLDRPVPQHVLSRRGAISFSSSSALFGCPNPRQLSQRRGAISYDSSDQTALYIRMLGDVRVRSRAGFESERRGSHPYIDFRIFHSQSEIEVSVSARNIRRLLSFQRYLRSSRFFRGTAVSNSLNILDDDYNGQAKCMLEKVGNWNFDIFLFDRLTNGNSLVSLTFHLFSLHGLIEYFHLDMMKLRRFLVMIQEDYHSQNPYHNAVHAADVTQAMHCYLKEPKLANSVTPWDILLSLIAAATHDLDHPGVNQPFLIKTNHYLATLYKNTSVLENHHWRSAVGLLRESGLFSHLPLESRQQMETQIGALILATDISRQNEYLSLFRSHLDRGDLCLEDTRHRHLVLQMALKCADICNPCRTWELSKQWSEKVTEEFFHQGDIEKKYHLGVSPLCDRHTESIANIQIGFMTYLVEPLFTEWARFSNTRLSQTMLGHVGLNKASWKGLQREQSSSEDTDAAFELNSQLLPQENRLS

CCOc1cc([C@@H](CS(C)(=O)=O)N2C(=O)c3cccc(NC(C)=O)c3C2=O)ccc1OC [Example 0, Apremilast, reference compound]
inhibition at 1 µM (PDE1C; 1 μM): 7.77% | inhibition at 10 µM (PDE1C; 10 μM): 37.1% | inhibition at 1 µM (PDE2A; 1 μM): 2.95% | inhibition at 10 µM (PDE2A; 10 μM): 2.35% | inhibition at 1 µM (PDE3B; 1 μM): 2.44% | inhibition at 10 µM (PDE3B; 10 μM): 1.56% | inhibition at 1 µM (PDE5A1): 3.97% | inhibition at 1 µM (PDE7A; 1 μM): 9.41% | inhibition at 10 µM (PDE7A; 10 μM): 11.1% | inhibition at 1 µM (PDE10A1; 1 μM): 0% | inhibition at 10 µM (PDE10A1; 10 μM): -2.75% | IC50 (TNF-α; Homo sapiens, PBMC): 63.8 nM | IC50 (IL-2): 110 nM | IC50 (INF-γ; Homo sapiens, PBMC, read-out: IC50 (nM), cytokine INF-r, human PBMC, stimulus LPS): 15.4 nM | IC50 (INF-γ; [1]): 77.8 nM

O=C(Nc1c(Cl)cncc1Cl)c1ccc(OC(F)F)c(OCC2CC2)c1 [Roflumilast]
IC50 (TNF-α; human PBMC, stimulus LPS): 2.83 nM | IC50 (IL-2): 14.7 nM | IC50 (INF-γ; [1]): 10.9 nM | IC50 (INF-γ; human PBMC, stimulus LPS, read-out: IC50 (nM), cytokine INF-r): 1.4 nM
